# The NIST ThermoML archive (doi:10.1016/j.jct.2013.10.038)
# ± gives the expanded uncertainty stated by the source.
# Assays:
# [1] = activity coefficient (dimensionless); of the first substance listed, at infinite dilution; xn = mol fraction of the nth substance listed; settings: 101 kPa, Liquid, Chromatography, x1 = 0
# [2] = 101.33 kPa, Liquid, Pycnometric method
Structure (SMILES),activity coefficient ([1]; 303.15 K),activity coefficient ([1]; 313.15 K),activity coefficient ([1]; 323.15 K),activity coefficient ([1]; 333.15 K),activity coefficient ([1]; 343.15 K),activity coefficient ([1]; 353.15 K),activity coefficient ([1]; 363.15 K),mass density ([2]; 293.15 K),mass density ([2]; 303.15 K),mass density ([2]; 313.15 K),mass density ([2]; 323.15 K),mass density ([2]; 333.15 K),mass density ([2]; 343.15 K)
CCOC(C)=O [ethyl acetate] + CCCCCCn1cc[n+](C)c1.O=C([O-])C(F)(F)F,2.64 ± 0.28,2.8 ± 0.29,2.91 ± 0.31,3.02 ± 0.32,3.12 ± 0.33,3.15 ± 0.33,3.44 ± 0.36,–,–,–,–,–,–
CO [methanol] + CCCCCCn1cc[n+](C)c1.O=C([O-])C(F)(F)F,0.1 ± 0.03,0.11 ± 0.03,0.12 ± 0.03,0.13 ± 0.03,0.13 ± 0.03,0.16 ± 0.03,0.16 ± 0.03,–,–,–,–,–,–
CCCCCCC [heptane] + CCCCCCn1cc[n+](C)c1.O=C([O-])C(F)(F)F,–,–,27 ± 2.8,–,–,–,–,–,–,–,–,–,–
c1ccccc1 [benzene] + CCCCCCn1cc[n+](C)c1.O=C([O-])C(F)(F)F,2.05 ± 0.22,2.07 ± 0.22,2.09 ± 0.22,2.1 ± 0.22,2.12 ± 0.22,2.13 ± 0.22,2.14 ± 0.22,–,–,–,–,–,–
Cc1ccccc1 [toluene] + CCCCCCn1cc[n+](C)c1.O=C([O-])C(F)(F)F,2.97 ± 0.31,3.02 ± 0.32,3.06 ± 0.32,3.1 ± 0.33,3.14 ± 0.33,3.17 ± 0.33,3.2 ± 0.34,–,–,–,–,–,–
"C1COCCO1 [1,4-dioxane] + CCCCCCn1cc[n+](C)c1.O=C([O-])C(F)(F)F",1.91 ± 0.2,1.92 ± 0.2,1.93 ± 0.2,1.94 ± 0.2,1.95 ± 0.2,1.95 ± 0.2,1.97 ± 0.21,–,–,–,–,–,–
CCCCCCCCC [nonane] + CCCCCCn1cc[n+](C)c1.O=C([O-])C(F)(F)F,–,–,64.2 ± 6.8,–,–,–,–,–,–,–,–,–,–
CCCCCCCC [octane] + CCCCCCn1cc[n+](C)c1.O=C([O-])C(F)(F)F,–,–,49.6 ± 5.2,–,–,–,–,–,–,–,–,–,–
C=Cc1ccccc1 [styrene] + CCCCCCn1cc[n+](C)c1.O=C([O-])C(F)(F)F,2.28 ± 0.24,2.39 ± 0.25,2.46 ± 0.26,2.53 ± 0.27,2.61 ± 0.27,2.68 ± 0.28,2.73 ± 0.29,–,–,–,–,–,–
CC#N [acetonitrile] + CCCCCCn1cc[n+](C)c1.O=C([O-])C(F)(F)F,1.01 ± 0.1,1.05 ± 0.11,1.11 ± 0.11,1.16 ± 0.12,1.22 ± 0.13,1.28 ± 0.13,1.32 ± 0.14,–,–,–,–,–,–
ClC(Cl)(Cl)Cl [tetrachloromethane] + CCCCCCn1cc[n+](C)c1.O=C([O-])C(F)(F)F,0.62 ± 0.07,0.7 ± 0.07,0.8 ± 0.08,0.91 ± 0.09,1.02 ± 0.1,1.19 ± 0.12,1.32 ± 0.14,–,–,–,–,–,–
Brc1ccccc1 [bromobenzene] + CCCCCCn1cc[n+](C)c1.O=C([O-])C(F)(F)F,2.18 ± 0.23,2.2 ± 0.23,2.24 ± 0.24,2.29 ± 0.24,2.32 ± 0.24,2.36 ± 0.25,2.41 ± 0.25,–,–,–,–,–,–
CCCCCC [hexane] + CCCCCCn1cc[n+](C)c1.O=C([O-])C(F)(F)F,–,–,29 ± 3,–,–,–,–,–,–,–,–,–,–
CC(C)CO [2-methyl-1-propanol] + CCCCCCn1cc[n+](C)c1.O=C([O-])C(F)(F)F,–,–,0.29 ± 0.04,0.3 ± 0.04,0.3 ± 0.04,0.31 ± 0.04,0.31 ± 0.04,–,–,–,–,–,–
ClCCl [dichloromethane] + CCCCCCn1cc[n+](C)c1.O=C([O-])C(F)(F)F,0.64 ± 0.07,0.65 ± 0.07,0.67 ± 0.07,0.68 ± 0.07,0.7 ± 0.07,0.72 ± 0.08,0.73 ± 0.08,–,–,–,–,–,–
"ClCCCl [1,2-dichloroethane] + CCCCCCn1cc[n+](C)c1.O=C([O-])C(F)(F)F",0.62 ± 0.07,0.75 ± 0.08,0.9 ± 0.09,1.1 ± 0.11,1.26 ± 0.13,1.62 ± 0.17,1.67 ± 0.17,–,–,–,–,–,–

Structure (SMILES),activity coefficient ([1]; 303.15 K),activity coefficient ([1]; 313.15 K),activity coefficient ([1]; 323.15 K),activity coefficient ([1]; 333.15 K),activity coefficient ([1]; 343.15 K),activity coefficient ([1]; 353.15 K),activity coefficient ([1]; 363.15 K),mass density ([2]; 293.15 K),mass density ([2]; 303.15 K),mass density ([2]; 313.15 K),mass density ([2]; 323.15 K),mass density ([2]; 333.15 K),mass density ([2]; 343.15 K)
C1=CCCCC1 [cyclohexene] + CCCCCCn1cc[n+](C)c1.O=C([O-])C(F)(F)F,–,–,9.6 ± 1,–,–,–,–,–,–,–,–,–,–
C1CCCCC1 [cyclohexane] + CCCCCCn1cc[n+](C)c1.O=C([O-])C(F)(F)F,–,–,16.9 ± 1.8,–,–,–,–,–,–,–,–,–,–
CCCCCCn1cc[n+](C)c1.O=C([O-])C(F)(F)F [1-hexyl-3-methylimidazolium trifluoroacetate],–,–,–,–,–,–,–,1153.5 ± 1.1 kg/m3,1146.6 ± 1.1 kg/m3,1140.7 ± 1.1 kg/m3,1134.4 ± 1.1 kg/m3,1127.8 ± 1.1 kg/m3,1121.6 ± 1.1 kg/m3
CC1CCCCC1 [methylcyclohexane] + CCCCCCn1cc[n+](C)c1.O=C([O-])C(F)(F)F,–,–,19.8 ± 2.1,–,–,–,–,–,–,–,–,–,–
Clc1ccccc1 [chlorobenzene] + CCCCCCn1cc[n+](C)c1.O=C([O-])C(F)(F)F,2.27 ± 0.24,2.26 ± 0.24,2.24 ± 0.24,2.22 ± 0.23,2.2 ± 0.23,2.2 ± 0.23,2.2 ± 0.23,–,–,–,–,–,–
CCO [ethanol] + CCCCCCn1cc[n+](C)c1.O=C([O-])C(F)(F)F,0.21 ± 0.03,0.22 ± 0.03,0.22 ± 0.03,0.23 ± 0.04,0.24 ± 0.04,0.26 ± 0.04,0.27 ± 0.04,–,–,–,–,–,–
CCCO [propan-1-ol] + CCCCCCn1cc[n+](C)c1.O=C([O-])C(F)(F)F,–,0.24 ± 0.04,0.25 ± 0.04,0.26 ± 0.04,0.27 ± 0.04,0.29 ± 0.04,0.31 ± 0.04,–,–,–,–,–,–
CCc1ccccc1 [ethylbenzene] + CCCCCCn1cc[n+](C)c1.O=C([O-])C(F)(F)F,4.1 ± 0.43,4.16 ± 0.44,4.22 ± 0.44,4.25 ± 0.45,4.32 ± 0.45,4.34 ± 0.46,4.36 ± 0.46,–,–,–,–,–,–
"CC(C)CC(C)(C)C [2,2,4-trimethylpentane] + CCCCCCn1cc[n+](C)c1.O=C([O-])C(F)(F)F",–,–,46.8 ± 4.9,–,–,–,–,–,–,–,–,–,–
CC(C)=O [acetone] + CCCCCCn1cc[n+](C)c1.O=C([O-])C(F)(F)F,1.69 ± 0.18,1.69 ± 0.18,1.68 ± 0.18,1.68 ± 0.18,1.67 ± 0.17,1.67 ± 0.17,1.67 ± 0.17,–,–,–,–,–,–
CC(C)O [propan-2-ol] + CCCCCCn1cc[n+](C)c1.O=C([O-])C(F)(F)F,0.34 ± 0.04,0.35 ± 0.04,0.36 ± 0.04,0.38 ± 0.05,0.39 ± 0.05,0.4 ± 0.05,0.42 ± 0.05,–,–,–,–,–,–
C1CCOC1 [tetrahydrofuran] + CCCCCCn1cc[n+](C)c1.O=C([O-])C(F)(F)F,1.95 ± 0.2,1.96 ± 0.21,1.98 ± 0.21,2 ± 0.21,2.02 ± 0.21,2.02 ± 0.21,2.05 ± 0.22,–,–,–,–,–,–
ClC(Cl)Cl [trichloromethane] + CCCCCCn1cc[n+](C)c1.O=C([O-])C(F)(F)F,0.08 ± 0.03,0.12 ± 0.03,0.22 ± 0.03,0.3 ± 0.04,0.45 ± 0.05,0.68 ± 0.07,1.06 ± 0.11,–,–,–,–,–,–
"Cc1ccccc1C [1,2-dimethylbenzene] + CCCCCCn1cc[n+](C)c1.O=C([O-])C(F)(F)F",3.54 ± 0.37,3.67 ± 0.39,3.83 ± 0.4,3.98 ± 0.42,4.1 ± 0.43,4.13 ± 0.43,4.53 ± 0.48,–,–,–,–,–,–
"Cc1cccc(C)c1 [1,3-dimethylbenzene] + CCCCCCn1cc[n+](C)c1.O=C([O-])C(F)(F)F",4.19 ± 0.44,4.25 ± 0.45,4.34 ± 0.46,4.39 ± 0.46,4.42 ± 0.46,4.53 ± 0.48,4.56 ± 0.48,–,–,–,–,–,–
"Cc1ccc(C)cc1 [1,4-dimethylbenzene] + CCCCCCn1cc[n+](C)c1.O=C([O-])C(F)(F)F",4.12 ± 0.43,4.18 ± 0.44,4.24 ± 0.45,4.29 ± 0.45,4.32 ± 0.45,4.42 ± 0.46,4.43 ± 0.47,–,–,–,–,–,–
